Active and inactive are the calls of the source. The calls are words filed in the database; no cut-off is given here.
Legend:
Cytochrome P450 2C9 = Cytochrome P450 2C9 (Homo sapiens, UniProt P11712); assay: Inhibition of CYP2C9 in human liver microsomes using diclofenac as substrate preincubated for 5 mins followed by NADPH addition and measured for 10 to 30 mins by LC-MS/MS analysis; format: ADME
COLO 320DM = assay: Antitumor activity against human COLO320DM cells xenografted in Prkdc-NOD-SCID CB17 mouse assessed as tumor growth inhibition at 10 mg/kg, po administered twice daily for 5 days followed by 2 days interval for 2 cycles relative to control; format: functional; conditions: read-out: TGI
[1] = Half life in ICR mouse at 20 mg/kg, ip; format: ADME, organism-based; conditions: in vivo
[2] = molecular target: Poly [ADP-ribose] polymerase 1 (Homo sapiens, UniProt P09874); assay: Inhibition of recombinant human PARP1 expressed in Escherichia coli assessed as reduction in auto-PARylation using histone as substrate measured after 45 mins in presence of biotinylated-NAD+ by ELISA
Chain of Poly [ADP-ribose] polymerase 1 (P09874 whole entry): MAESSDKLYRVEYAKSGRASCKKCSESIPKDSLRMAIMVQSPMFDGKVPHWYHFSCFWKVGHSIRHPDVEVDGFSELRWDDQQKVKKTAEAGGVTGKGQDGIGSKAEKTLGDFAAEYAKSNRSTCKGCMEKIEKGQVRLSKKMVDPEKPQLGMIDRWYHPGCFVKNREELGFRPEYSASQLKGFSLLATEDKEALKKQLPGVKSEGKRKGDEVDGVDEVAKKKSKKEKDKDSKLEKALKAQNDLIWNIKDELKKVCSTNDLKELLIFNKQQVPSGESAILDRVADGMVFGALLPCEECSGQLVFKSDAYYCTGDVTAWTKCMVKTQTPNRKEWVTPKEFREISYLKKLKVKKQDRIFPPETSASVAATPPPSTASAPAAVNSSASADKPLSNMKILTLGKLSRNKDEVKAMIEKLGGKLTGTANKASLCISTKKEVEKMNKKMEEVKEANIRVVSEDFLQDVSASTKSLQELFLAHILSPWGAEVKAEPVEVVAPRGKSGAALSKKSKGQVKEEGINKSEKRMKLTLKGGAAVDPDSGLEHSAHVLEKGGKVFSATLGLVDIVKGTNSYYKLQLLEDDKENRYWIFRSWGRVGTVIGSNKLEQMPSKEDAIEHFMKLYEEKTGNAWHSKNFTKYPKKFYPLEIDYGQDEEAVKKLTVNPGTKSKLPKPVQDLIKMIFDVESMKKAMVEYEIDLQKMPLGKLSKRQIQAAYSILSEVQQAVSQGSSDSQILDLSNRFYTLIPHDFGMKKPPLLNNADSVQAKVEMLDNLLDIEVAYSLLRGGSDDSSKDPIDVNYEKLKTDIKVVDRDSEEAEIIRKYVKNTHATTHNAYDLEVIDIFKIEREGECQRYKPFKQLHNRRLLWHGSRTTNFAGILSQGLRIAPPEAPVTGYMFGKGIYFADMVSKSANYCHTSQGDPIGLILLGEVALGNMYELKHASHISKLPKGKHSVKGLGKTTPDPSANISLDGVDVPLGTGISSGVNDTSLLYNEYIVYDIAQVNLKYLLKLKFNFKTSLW

[3] = molecular target: T1, Poly [ADP-ribose] polymerase tankyrase-1 (Homo sapiens, UniProt O95271)
T1 sequence (O95271 whole entry): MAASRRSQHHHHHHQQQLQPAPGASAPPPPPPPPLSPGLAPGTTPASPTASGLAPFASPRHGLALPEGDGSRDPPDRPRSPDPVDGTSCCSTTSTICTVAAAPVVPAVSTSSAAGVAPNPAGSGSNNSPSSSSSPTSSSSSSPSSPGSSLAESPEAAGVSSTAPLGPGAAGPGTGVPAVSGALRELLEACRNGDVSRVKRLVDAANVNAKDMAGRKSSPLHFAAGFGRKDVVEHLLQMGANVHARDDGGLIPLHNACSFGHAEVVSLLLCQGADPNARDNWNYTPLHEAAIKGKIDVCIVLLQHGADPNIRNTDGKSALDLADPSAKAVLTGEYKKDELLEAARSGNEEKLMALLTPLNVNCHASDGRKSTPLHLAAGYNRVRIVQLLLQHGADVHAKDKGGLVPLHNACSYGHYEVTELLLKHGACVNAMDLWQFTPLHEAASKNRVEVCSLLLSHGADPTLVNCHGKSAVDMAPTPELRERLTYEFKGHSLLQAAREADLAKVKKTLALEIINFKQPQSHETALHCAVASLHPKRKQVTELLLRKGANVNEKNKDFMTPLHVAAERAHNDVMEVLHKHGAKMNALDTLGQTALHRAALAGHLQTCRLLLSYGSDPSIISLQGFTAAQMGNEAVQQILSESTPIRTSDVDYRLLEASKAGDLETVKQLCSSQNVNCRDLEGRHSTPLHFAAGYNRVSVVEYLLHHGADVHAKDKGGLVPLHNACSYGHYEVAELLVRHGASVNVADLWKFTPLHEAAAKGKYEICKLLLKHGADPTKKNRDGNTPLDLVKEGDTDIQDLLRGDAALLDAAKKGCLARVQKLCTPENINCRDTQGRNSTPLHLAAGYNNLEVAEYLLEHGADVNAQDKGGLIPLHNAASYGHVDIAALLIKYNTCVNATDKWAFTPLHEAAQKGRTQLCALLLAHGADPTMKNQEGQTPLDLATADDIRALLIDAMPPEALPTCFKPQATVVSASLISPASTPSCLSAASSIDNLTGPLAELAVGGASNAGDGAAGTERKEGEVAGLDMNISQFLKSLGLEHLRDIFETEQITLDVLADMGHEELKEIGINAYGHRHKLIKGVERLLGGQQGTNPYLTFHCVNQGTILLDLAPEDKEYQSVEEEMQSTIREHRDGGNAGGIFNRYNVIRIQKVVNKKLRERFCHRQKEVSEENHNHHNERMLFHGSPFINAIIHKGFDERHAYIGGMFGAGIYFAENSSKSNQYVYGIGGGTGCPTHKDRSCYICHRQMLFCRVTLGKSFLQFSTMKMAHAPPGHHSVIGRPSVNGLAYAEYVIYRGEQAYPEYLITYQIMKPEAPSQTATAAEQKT
Description: Inhibition of recombinant human N-terminal TEV cleavage site-fused/FLAG-poly his-tagged TNKS SAM-PARP domain (1024 to 1327 residues) expressed in Escherichia coli assessed as reduction in auto-PARylation preincubated for 10 mins followed by biotinylated-NAD+ addition and measured after 45 mins by ELISA

[4] = Toxicity in human COLO320DM cells xenografted Prkdc-NOD-SCID CB17 mouse assessed as behavioral changes at 50 mg/kg, ip administered twice daily for 5 days followed by 2 days interval for 2 cycles; conditions: in vivo
[5] = Plasma concentration in ICR mouse at 20 mg/kg, po measured after 4 hrs; format: ADME, organism-based
[6] = Cmax in ICR mouse at 20 mg/kg, po; format: ADME, organism-based; set-up: dose 20 mg/kg, route oral; conditions: in vivo
[7] = molecular target: Tankyrase 1/2 (Homo sapiens) (UniProt Q9H2K2+O95271); assay: Inhibition of TNKS/TNKS2-mediated WNT/beta-catenin signaling pathway in human COLO320DM cells assessed as reduction in active beta-catenin expression by measuring beta-catenin level at 0.1 uM measured after 16 hrs by Western blot analysis relative to GADPH; format: cell-based
Chain of Tankyrase 1/2 (Homo sapiens) (Q9H2K2 whole entry, looked up, one chain of several): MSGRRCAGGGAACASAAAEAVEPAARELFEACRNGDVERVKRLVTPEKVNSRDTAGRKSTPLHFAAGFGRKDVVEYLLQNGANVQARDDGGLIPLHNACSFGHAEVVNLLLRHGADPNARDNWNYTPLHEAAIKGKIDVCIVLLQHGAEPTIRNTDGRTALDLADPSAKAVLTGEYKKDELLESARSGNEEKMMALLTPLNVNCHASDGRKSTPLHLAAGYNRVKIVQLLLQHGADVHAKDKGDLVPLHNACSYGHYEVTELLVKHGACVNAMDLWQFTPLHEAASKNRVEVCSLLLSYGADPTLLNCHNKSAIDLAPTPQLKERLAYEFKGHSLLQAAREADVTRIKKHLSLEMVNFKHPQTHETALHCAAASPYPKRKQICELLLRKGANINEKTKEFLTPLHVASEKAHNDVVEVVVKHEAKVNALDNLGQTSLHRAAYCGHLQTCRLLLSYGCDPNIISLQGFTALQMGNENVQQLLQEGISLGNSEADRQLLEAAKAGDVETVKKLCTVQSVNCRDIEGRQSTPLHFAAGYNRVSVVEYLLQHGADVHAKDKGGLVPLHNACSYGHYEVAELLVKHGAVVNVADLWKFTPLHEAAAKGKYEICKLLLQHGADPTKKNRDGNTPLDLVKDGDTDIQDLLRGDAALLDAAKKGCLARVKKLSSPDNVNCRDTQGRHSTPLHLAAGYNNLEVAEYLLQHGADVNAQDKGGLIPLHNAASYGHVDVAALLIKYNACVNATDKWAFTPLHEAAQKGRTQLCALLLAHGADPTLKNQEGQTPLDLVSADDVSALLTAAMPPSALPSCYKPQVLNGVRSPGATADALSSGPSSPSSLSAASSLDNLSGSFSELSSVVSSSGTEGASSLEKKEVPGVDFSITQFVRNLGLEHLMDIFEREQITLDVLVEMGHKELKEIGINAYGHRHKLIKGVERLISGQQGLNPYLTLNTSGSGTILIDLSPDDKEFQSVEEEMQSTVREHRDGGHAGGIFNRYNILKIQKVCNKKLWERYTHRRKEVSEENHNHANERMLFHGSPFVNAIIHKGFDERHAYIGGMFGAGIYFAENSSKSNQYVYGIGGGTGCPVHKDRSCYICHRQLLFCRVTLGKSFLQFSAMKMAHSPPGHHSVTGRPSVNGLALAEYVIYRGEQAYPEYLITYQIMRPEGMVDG

[8] = Tmax in ICR mouse at 20 mg/kg, po; format: ADME, organism-based; conditions: in vivo
Mus musculus = assay: In vivo inhibition of TNSK/TNSK2-medited WNT/beta-catenin signaling in human COLO320DM cells xenografted Prkdc-NOD-SCID CB17 mouse assessed as reduction in total beta catenin expression in tumor nuclear extract at 10 to 20 mg/kg, ip administered twice daily for 5 days followed by 2 days interval for 2 cycles measured 4 hrs post-last dose by Western blot analysis; format: functional, organism-based
[9] = Dose normalized initial plasma concentration in Sprague-Dawley rat at 1 mg/kg, iv; format: ADME, organism-based; conditions: in vivo
[10] = AUC (infinity) in ICR mouse at 20 mg/kg, po; format: ADME, organism-based; set-up: dose 20 mg/kg, time infinity, route oral; conditions: in vivo
Cytochrome P450 1A2 = molecular target: T2, Cytochrome P450 1A2 (Homo sapiens, UniProt P05177); assay: Inhibition of CYP1A2 in human liver microsomes using phenacetin as substrate preincubated for 5 mins followed by NADPH addition and measured for 10 to 30 mins by LC-MS/MS analysis; format: ADME
T2 sequence (P05177 whole entry): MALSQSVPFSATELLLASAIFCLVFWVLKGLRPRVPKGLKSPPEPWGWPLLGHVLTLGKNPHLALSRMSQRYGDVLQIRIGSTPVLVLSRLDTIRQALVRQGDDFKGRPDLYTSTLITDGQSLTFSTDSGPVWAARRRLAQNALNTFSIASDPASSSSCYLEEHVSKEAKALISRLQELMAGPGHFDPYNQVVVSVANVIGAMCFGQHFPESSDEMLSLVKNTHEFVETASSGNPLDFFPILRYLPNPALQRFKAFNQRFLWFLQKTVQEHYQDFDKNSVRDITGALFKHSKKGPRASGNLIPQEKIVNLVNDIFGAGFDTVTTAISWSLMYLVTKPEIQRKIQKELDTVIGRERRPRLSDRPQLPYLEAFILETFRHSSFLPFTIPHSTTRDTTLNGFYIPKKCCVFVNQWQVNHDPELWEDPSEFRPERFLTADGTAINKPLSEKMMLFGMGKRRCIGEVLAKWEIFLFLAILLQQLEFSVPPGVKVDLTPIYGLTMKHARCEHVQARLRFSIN

Chain of Cytochrome P450 2C9 (P11712 whole entry): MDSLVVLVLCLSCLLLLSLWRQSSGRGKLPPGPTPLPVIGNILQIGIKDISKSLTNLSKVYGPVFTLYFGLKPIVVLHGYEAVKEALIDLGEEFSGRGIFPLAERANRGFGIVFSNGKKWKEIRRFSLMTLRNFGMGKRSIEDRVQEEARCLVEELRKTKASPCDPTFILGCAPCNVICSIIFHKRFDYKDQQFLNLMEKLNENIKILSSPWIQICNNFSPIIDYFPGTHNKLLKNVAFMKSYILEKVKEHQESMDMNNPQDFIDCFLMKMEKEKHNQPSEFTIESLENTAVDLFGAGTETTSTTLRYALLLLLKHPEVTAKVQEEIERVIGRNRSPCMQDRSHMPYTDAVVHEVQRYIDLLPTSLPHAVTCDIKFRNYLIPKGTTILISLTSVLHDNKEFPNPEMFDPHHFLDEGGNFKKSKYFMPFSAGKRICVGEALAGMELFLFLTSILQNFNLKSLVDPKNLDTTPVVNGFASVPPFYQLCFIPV

Structure (SMILES) | IC50 (Cytochrome P450 2C9) | inhibition in vivo at 10 mg/kg (COLO 320DM) | half-life [1] | Ratio IC50 (Homo sapiens) | IC50 [2] | IC50 [3] | Activity [4] | concentration at 4 h [5] | Cmax [6] | fold change (FC) [7] | Tmax [8] | inhibition (Mus musculus) | C0/dose [9] | AUC(0-inf) [10] | IC50 (Cytochrome P450 1A2)
C[C@@H]1CN(c2cc(F)c3c(c2)N(C)C(=O)C32CCN(c3nc4c(c(=O)[nH]3)CCCN4C)CC2)C[C@H](C)O1 | > 10 µM | 52.3% | 2.8 h | 223 | 18.2 µM | 0.0361 µM | Toxic | 26.9 µM | 76.6 µM | 0.39 | 1 h | inactive | 15.26 µM | 326 µM·h | > 10 µM
CN1CCN(c2cc(F)c3c(c2)N(C)C(=O)C32CCN(c3nc4c(c(=O)[nH]3)CCCN4C)CC2)CC1 | – | – | – | – | – | 0.0077 µM | – | – | – | – | – | – | – | – | –
